Series [1] deals with human cryopreserved hepatocytes. The series is described as follows: Metabolic stability (hepatocytes). The note with it: human cryopreserved hepatocytes.
Method: The metabolic stability of compounds was evaluated in human cryopreserved hepatocytes (BioreclamationlVT, NY, USA) in duplicate. Test articles (or controls) were added to a 24-well incubation plate (Becton Dickinson Labware, USA) containing 0.5×10^6 hepatocytes/mL in suspension. The plate was held at 37° C. and agitated with constant orbital shaking (orbital speed at 350 rpm). At each time point (0, 5, 10, 15, 20, 30, 45, 60, 90, 120, 150 and 180 min) a Tecan Evo robot aspirated 50 μL of the incubation mixture and 100 μL of acetonitrile containing internal standard to quench the reaction. […] Samples were centrifuged (3000 rpm for 10 minutes) and the plate sealed prior to injection onto an LC-MS/MS system.
The appropriate parent/daughter ions were monitored for the test article and IS with the LC-MS/MS system. The intrinsic clearance (Clint; expressed μL/min/million cells) was determined from the first order elimination constant (k, min^−1) of test article decay and the volume of the incubation. […] The intrinsic organ CL was then converted to the hepatic clearance (CLhep) using the well-stirred model as shown below, where Qh is human hepatic blood flow.
Hepatic clearance is expressed as mL/min/kg. The hepatic clearance relates to the flow of blood through the liver that is completely cleared of the compound.
The next series deals with GST-hRIPK1 (8-327) (Homo sapiens (Human), UniProt Q13546). Put plainly: Fluorescent Polarization Binding (FP Binding) assay.
The subject of series [2] is FADD-deficient Jurkat cells. Put plainly: Cellular necroptosis assay (human TNFα-induced necrosis, CellTiter-Glo). Type of series: cell-based. As to conditions: Homo sapiens, Jurkat, 48 h, read-out: Cell IC50.

This is an account of results in patent US10604535B2, “Compounds, compositions and methods” (Denali Therapeutics Inc., priority 2016, dated 2020).

The structures appear in SMILES notation. pIC50: −log10 of the molar value. Like-named read-outs stand apart in the source and are kept apart here.

Chain of GST-hRIPK1 (8-327) (Q13546 8-327): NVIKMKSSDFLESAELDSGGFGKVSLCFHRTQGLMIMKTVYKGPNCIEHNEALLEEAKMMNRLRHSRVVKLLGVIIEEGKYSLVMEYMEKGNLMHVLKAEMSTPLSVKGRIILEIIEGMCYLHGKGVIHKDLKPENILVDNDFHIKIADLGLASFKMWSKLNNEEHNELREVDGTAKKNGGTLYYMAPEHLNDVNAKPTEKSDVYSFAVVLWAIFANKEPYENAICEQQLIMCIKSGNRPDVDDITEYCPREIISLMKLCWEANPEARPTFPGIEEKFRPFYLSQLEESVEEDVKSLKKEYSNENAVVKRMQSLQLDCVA

A word on the pIC50: it is the IC50 on a negative log10 scale, so that one unit is a factor of ten. For the compound `CN1C(=O)[C@@H](NC(=O)c2nnc(Cc3ccccc3)o2)CCc2cccnc21` [Example 148A, (S)-5-benzyl-N-(9-methyl-8-oxo-6,7,8,9-tetrahydro-5H-pyrido[2,3-b]azepin-7-yl)-1,3,4-oxadiazole-2-carboxamide], the “Human hepatocyte CLhep Avg” value in series [1] is 12 mL/min/kg. The same compound had a negative logarithm of the IC50 (pIC50) on GST-hRIPK1 (8-327) of 6.00 to 10.00.

Consider `CN1C(=O)[C@@H](NC(=O)c2nnc(Cc3ccccc3)s2)[C@H]2C[C@H]2c2nccnc21` [Example 198, 5-benzyl-N-((7S,7aS,8aR)-5-methyl-6-oxo-5,6,7,7a,8,8a-hexahydrocyclopropa[d]pyrazino[2,3-b]azepin-7-yl)-1,3,4-thiadiazole-2-carboxamide], for which, in series [1], the “Human hepatocyte CLhep Avg” value is recorded as 8.5 mL/min/kg. Also, at GST-hRIPK1 (8-327), the pIC50 is 6.00 to 10.00.

For the compound `CN1C(=O)[C@@H](NC(=O)c2nnc(Cc3cccc(C#N)c3)[nH]2)COc2cccnc21` [Example 161, (S)-5-(3-cyanobenzyl)-N-(5-methyl-4-oxo-2,3,4,5-tetrahydropyrido[3,2-b][1,4]oxazepin-3-yl)-4H-1,2,4-triazole-3-carboxamide], in series [1], the “Human hepatocyte CLhep Avg” value worked out at 0 mL/min/kg. The compound also had a pIC50 on GST-hRIPK1 (8-327) of 6.00 to 10.00. `CN1C(=O)[C@@H](NC(=O)c2cc(Cc3ccccc3)on2)COc2ccccc21` [C, reference compound]: the negative logarithm of the IC50 (pIC50) in series [2] (TNFα 10 ng/mL) is 9.00. For the same compound, the “Human hepatocyte CLhep Avg” value in series [1] is on record as 19 mL/min/kg.

Turning to `CN1C(=O)[C@@H](NC(=O)c2cc(Cc3ccccc3)on2)[C@H]2C[C@H]2c2nccnc21` [Example 197, 5-benzyl-N-((7S,7aS,8aR)-5-methyl-6-oxo-5,6,7,7a,8,8a-hexahydrocyclopropa[d]pyrazino[2,3-b]azepin-7-yl)isoxazole-3-carboxamide], the “Human hepatocyte CLhep Avg” value in series [1] came out at 13 mL/min/kg. The compound also gave a pIC50 on GST-hRIPK1 (8-327) of 6.00 to 10.00. Consider `CN1C(=O)[C@@H](NC(=O)c2cc(C3(c4ccccc4)CC3)on2)COc2cccnc21` [Example 77, (S)—N-(5-methyl-4-oxo-2,3,4,5-tetrahydropyrido[3,2-b][1,4]oxazepin-3-yl)-5-(1-phenylcyclopropyl)isoxazole-3-carboxamide], for which the “Human hepatocyte CLhep Avg” value in series [1] is recorded as 19 mL/min/kg. Consider `CN1C(=O)[C@@H](NC(=O)c2cc(Cc3ccccc3)on2)COc2cccnc21` [Example 142, (S)-5-Benzyl-N-(5-methyl-4-oxo-2,3,4,5-tetrahydropyrido[3,2-b][1,4]oxazepin-3-yl)isoxazole-3-carboxamide], for which, in series [1], the “Human hepatocyte CLhep Avg” value amounted to 16 mL/min/kg. The compound also showed a pIC50 at GST-hRIPK1 (8-327) of 6.00 to 10.00. The corresponding values for `[2H]C([2H])([2H])N1C(=O)[C@@H](NC(=O)c2nn(Cc3ccccc3)cc2F)[C@@H](C)Oc2ncccc21` [Example 205, 1-benzyl-N-((3S,4R)-1-trideuteriomethyl-4-methyl-2-oxo-1,2,3,4-tetrahydropyrido[2,3-b][1,4]oxazepin-3-yl)-4-fluoro-1H-pyrazole-3-carboxamide] are 11 mL/min/kg and 6.00 to 10.00. The corresponding values for `N#Cc1cccc(Cn2cc(F)c(C(=O)N[C@@H]3C(=O)Nc4c(F)cc(F)cc4[C@@H]4C[C@H]34)n2)c1` [Example 170A, 1-(3-cyanobenzyl)-N-((1aS,2S,8bR)-5,7-difluoro-3-oxo-1,1a,2,3,4,8b-hexahydrobenzo[b]cyclopropa[d]azepin-2-yl)-4-fluoro-1H-pyrazole-3-carboxamide] are 3.1 mL/min/kg and 6.00 to 10.00. The corresponding values for `CN1C(=O)[C@@H](NC(=O)c2cn(Cc3ccccc3)nn2)[C@H]2C[C@H]2c2nccnc21` [Example 195, 1-benzyl-N-((7S,7aS,8aR)-5-methyl-6-oxo-5,6,7,7a,8,8a-hexahydrocyclopropa[d]pyrazino[2,3-b]azepin-7-yl)-1H-1,2,3-triazole-4-carboxamide] are 7.1 mL/min/kg and 6.00 to 10.00.

For the compound `CN1C(=O)[C@@H](NC(=O)c2nnc(Cc3ccccc3)s2)[C@H]2C[C@H]2c2cccnc21` [Example 120A, 5-benzyl-N-((1aS,2S,8bR)-4-methyl-3-oxo-1,1a,2,3,4,8b-hexahydrocyclopropa[d]pyrido[2,3-b]azepin-2-yl)-1,3,4-thiadiazole-2-carboxamide], the negative logarithm of the IC50 (pIC50) (in series [2] (TNFα 10 ng/mL); on GST-hRIPK1 (8-327)) was 6.00 to 10.00 throughout.

As for `CN1C(=O)[C@@H](NC(=O)c2nnc(Cc3ccccc3)[nH]2)CC2(CC2)c2ccccc21` [Example 44, (S)-5-benzyl-N-(1-methyl-2-oxo-1,2,3,4-tetrahydrospiro[benzo[b]azepine-5,1′-cyclopropan]-3-yl)-4H-1,2,4-triazole-3-carboxamide], the pIC50 (in series [2] (TNFα 10 ng/mL); on GST-hRIPK1 (8-327)) was 6.00 to 10.00 in each case. Regarding `C[C@H]1Oc2cccnc2N(C)C(=O)[C@H]1NC(=O)c1cc(Oc2ccccc2F)cnn1` [Example 139, N-((2R,3S)-2,5-dimethyl-4-oxo-2,3,4,5-tetrahydropyrido[3,2-b][1,4]oxazepin-3-yl)-5-(2-fluorophenoxy)pyridazine-3-carboxamide], the negative-log IC50 (pIC50) (in series [2] (TNFα 10 ng/mL); at GST-hRIPK1 (8-327)) was 6.00 to 10.00 throughout. For the compound `CN1C(=O)[C@@H](NC(=O)c2nnc(Cc3cccc(C#N)c3)[nH]2)COc2ccccc21` [Example 163, (S)-5-(3-cyanobenzyl)-N-(5-methyl-4-oxo-2,3,4,5-tetrahydrobenzo[b][1,4]oxazepin-3-yl)-4H-1,2,4-triazole-3-carboxamide], the “Human hepatocyte CLhep Avg” value in series [1] is on record as 0 mL/min/kg. This compound showed a negative-log IC50 (pIC50) on GST-hRIPK1 (8-327) of 6.00 to 10.00.

In the case of `CN1C(=O)[C@@H](NC(=O)c2nnc(C3(c4ccccc4)CC3)s2)COc2ccccc21` [Example 58, (S)—N-(5-methyl-4-oxo-2,3,4,5-tetrahydrobenzo[b][1,4]oxazepin-3-yl)-5-(1-phenylcyclopropyl)-1,3,4-thiadiazole-2-carboxamide], the pIC50 (in series [2] (TNFα 10 ng/mL); on GST-hRIPK1 (8-327)) was 6.00 to 10.00 each time. Consider `CN1C(=O)[C@@H](NC(=O)c2cc(C#N)n(Cc3ccccc3)n2)COc2cccnc21` [Example 158, (S)-1-benzyl-5-cyano-N-(5-methyl-4-oxo-2,3,4,5-tetrahydropyrido[3,2-b][1,4]oxazepin-3-yl)-1H-pyrazole-3-carboxamide], for which the negative logarithm of the IC50 (pIC50) (in series [2]; at GST-hRIPK1 (8-327)) was 6.00 to 10.00 in each case.

With `CN1C(=O)[C@@H](NC(=O)c2nc(C#N)c(Cc3ccccc3)s2)COc2cccnc21` [Example 151, (S)-5-benzyl-4-cyano-N-(5-methyl-4-oxo-2,3,4,5-tetrahydropyrido[3,2-b][1,4]oxazepin-3-yl)thiazole-2-carboxamide], the negative-log IC50 (pIC50) (in series [2] (TNFα 10 ng/mL); at GST-hRIPK1 (8-327)) was 6.00 to 10.00 each time. As to `CN1C(=O)[C@@H](NC(=O)c2ncc(Cc3cccc(C#N)c3)s2)COc2ccccc21` [Example 164, (S)-5-(3-cyanobenzyl)-N-(5-methyl-4-oxo-2,3,4,5-tetrahydrobenzo[b][1,4]oxazepin-3-yl)thiazole-2-carboxamide], the pIC50 (in series [2] (TNFα 10 ng/mL); on GST-hRIPK1 (8-327)) was 6.00 to 10.00 each time.

In the case of `C[C@H]1Oc2cccnc2NC(=O)[C@H]1NC(=O)c1nnc(Cc2ccccc2)[nH]1` [Example 96, 5-benzyl-N-((2R,3S)-2-methyl-4-oxo-2,3,4,5-tetrahydropyrido[3,2-b][1,4]oxazepin-3-yl)-4H-1,2,4-triazole-3-carboxamide], the pIC50 (in series [2] (TNFα 10 ng/mL); at GST-hRIPK1 (8-327)) was 6.00 to 10.00 throughout. Regarding `C[C@H]1Oc2cccnc2N(C)C(=O)[C@H]1NC(=O)c1cc(Cc2ccccc2)on1` [Example 112, 5-benzyl-N-((2R,3S)-2,5-dimethyl-4-oxo-2,3,4,5-tetrahydropyrido[3,2-b][1,4]oxazepin-3-yl)isoxazole-3-carboxamide], the negative logarithm of the IC50 (pIC50) (in series [2] (TNFα 10 ng/mL); at GST-hRIPK1 (8-327)) was 6.00 to 10.00 each time. Consider `O=C(N[C@H]1COc2cccnc2NC1=O)c1ncc(Cc2ccccc2)s1` [Example 123, (S)-5-benzyl-N-(4-oxo-2,3,4,5-tetrahydropyrido[3,2-b][1,4]oxazepin-3-yl)thiazole-2-carboxamide], for which the negative-log IC50 (pIC50) (in series [2] (TNFα 10 ng/mL); at GST-hRIPK1 (8-327)) was 6.00 to 10.00 in each case. As to `C[C@H]1Oc2cccnc2N(C)C(=O)[C@H]1NC(=O)c1ncn(Cc2ccccc2)n1` [Example 136, 1-Benzyl-N-((2R,3S)-2,5-dimethyl-4-oxo-2,3,4,5-tetrahydropyrido[3,2-b][1,4]oxazepin-3-yl)-1H-1,2,4-triazole-3-carboxamide], the pIC50 (in series [2] (TNFα 10 ng/mL); on GST-hRIPK1 (8-327)) was 6.00 to 10.00 each time.

Turning to `CN1C(=O)[C@@H](NC(=O)c2nnc(Cc3ccccc3)[nH]2)COc2c(Cl)cccc21` [Example 32, (S)-5-benzyl-N-(9-chloro-5-methyl-4-oxo-2,3,4,5-tetrahydrobenzo[b][1,4]oxazepin-3-yl)-4H-1,2,4-triazole-3-carboxamide], the negative logarithm of the IC50 (pIC50) (in series [2] (TNFα 10 ng/mL); at GST-hRIPK1 (8-327)) was 6.00 to 10.00 throughout. Consider `CN1C(=O)[C@@H](NC(=O)c2nn(Cc3ccccc3)cc2F)CCc2c1cnn2C` [Example 114A, (S)-1-benzyl-N-(1,4-dimethyl-5-oxo-1,4,5,6,7,8-hexahydropyrazolo[4,3-b]azepin-6-yl)-4-fluoro-1H-pyrazole-3-carboxamide], for which the pIC50 (in series [2] (TNFα 10 ng/mL); at GST-hRIPK1 (8-327)) was 6.00 to 10.00 each time.

Turning to `CN1C(=O)[C@@H](NC(=O)c2cn(Cc3ccccc3)nn2)COc2cccnc21` [Example 201, (S)-1-benzyl-N-(5-methyl-4-oxo-2,3,4,5-tetrahydropyrido[3,2-b][1,4]oxazepin-3-yl)-1H-1,2,3-triazole-4-carboxamide], the pIC50 (in series [2] (TNFα 10 ng/mL); on GST-hRIPK1 (8-327)) was 6.00 to 10.00 each time. Regarding `CN1C(=O)[C@@H](NC(=O)c2cc(Cc3ccccc3)on2)C2CC2c2ccccc21` (stereo partly drawn) [Example 7, 5-benzyl-N-((2S)-4-methyl-3-oxo-1,1a,2,3,4,8b-hexahydrobenzo[b]cyclopropa[d]azepin-2-yl)isoxazole-3-carboxamide], the pIC50 (in series [2] (TNFα 10 ng/mL); on GST-hRIPK1 (8-327)) was 6.00 to 10.00 each time. For the compound `CN1C(=O)[C@@H](NC(=O)c2nn(Cc3ccccn3)cc2F)COc2ccccc21` [Example 55, (S)-4-fluoro-N-(5-methyl-4-oxo-2,3,4,5-tetrahydrobenzo[b][1,4]oxazepin-3-yl)-1-(pyridin-2-ylmethyl)-1H-pyrazole-3-carboxamide], the negative-log IC50 (pIC50) (in series [2] (TNFα 10 ng/mL); on GST-hRIPK1 (8-327)) was 6.00 to 10.00 each time.
